Test system: Anguilla japonica leptocephali
Experiment: Induction of Anguilla japonica metamorphosis by T4 treatment in 23° C. breeding water
Format: in vivo
Set-up: key: L: During life, no characteristics of metamorphosis seen.; Stage 1: Starting phase of metamorphosis. The rostral end is rounded, and intestinal degeneration starts.; Stage 2: Peak phase of metamorphosis. Intestinal degeneration becomes pronounced.; Stage 3: Late phase of metamorphosis.; Stage 4: Pre-glass eel stage. Almost the eel form, but the body height still remains
From the text: Stage 1: Starting phase of metamorphosis. The rostral end is rounded, and intestinal degeneration starts.
Stage 2: Peak phase of metamorphosis. Intestinal degeneration becomes pronounced. In the second half, the anus reaches to near the last vertical blood vessel (VBV last).
Stage 3: Late phase of metamorphosis. The preanal length (PAL) becomes equal to or shorter than the last vertical blood vessel length (VBV last Length) (PAL VBV last Length). The body height is apparently low.
Stage 4: Pre-glass eel stage. Almost the eel form, but the body height still remains. Melanophores on the body surface or endogenous melanophores are not yet seen.
Elver stage: Juvenile stage. Food intake can be identified.
A thyroid hormone (e.g., thyroxine (T4)) is adjusted to 50 to 100 mM in a 1- to 2-mL volume messflask. As a solvent, known solvents (water, alcohol) can be used. Ethanol is preferably used as the solvent.
For example, using ethanol as a solvent, T4 adjusted to 50 mM is diluted 500-fold, 5,000-fold, and 50,000-fold, respectively, and adjusted to […], 1 μM, and 100 nM. A feed can be prepared in this manner.
Artificial seawater is added to a breeding vessel, and 1/1000 of the […] T4 is added to prepare […] T4 breeding water.
Half of the breeding water is replaced every two days with breeding water of the same concentration. In the case where the concentration is changed, for example, in the case of changing from 10 nM to 2 nM, 80% to the breeding water is removed, and unadjusted artificial seawater is newly added to make 1 L.
Leptocephali visually considered to have reached a total length of 40 mm (or may be 30 mm to 50 mm, may be 35 mm to 45 mm, or may also be 35 mm or more, 40 mm or more, or 45 mm or more) are selected, anesthetized with 2-phenoxyethanol, and then photographed, and the total length of each larva is measured using an image analyzing device.
The larvae are placed in 10 nM T4 breeding water and then placed in an incubator set at 23° C., and breeding is started. In first one week, observation is performed every two days, and half of the 10 nM T4 breeding water is replaced each time. The average amount of thyroid hormone in the breeding water in stage 1 is 1 nM to 100 nM, for example, and may also be 3 nM to 30 nM, or 5 nM to 20 nM.
For larvae visually judged to have reached the second half of stage 2, the concentration of the breeding water is changed. The breeding water is diluted 5-fold or 10-fold and adjusted to 2 nM or 1 nM T4, and breeding is continued. The average amount of thyroid hormone in the breeding water in stage 2 may be, as compared with the breeding water of stage 1, diluted 2-fold to 20-fold, diluted 3 to 15-fold, or diluted 5 to 10-fold as described above. The average amount of thyroid hormone in the breeding water in stage 2 is 0.1 nM to 20 nM, for example, and may also be 0.5 nM to 10 nM, 1 nM to 5 nM, or 1 nM to 2 nM.
For larvae visually judged to have reached stage 3, the breeding water is quickly changed 0.2 nM T4 breeding water, which is a 5-fold dilution of 1 nM T4 breeding water, and further changed to 0.1 nM T4 breeding water on the following day. […] Also, in larvae whose anus position has not reached the last vertical hemal spine, when they are judged to be on the brink of stage 3, the concentration is changed as above. The average amount of thyroid hormone in the breeding water in stage 3 may be, as compared with the breeding water of stage 2, diluted 2-fold to 50-fold, diluted 3 to 15-fold, diluted 4 to 6-fold, or diluted 5-fold as described above. The average amount of thyroid hormone in the breeding water in stage 3 is 0.01 nM to 2 nM, for example, and may also be 0.05 nM to 1 nM, 0.1 nM to 0.5 nM, or 0.1 nM to 0.2 nM. […] That is, the concentration may be changed such that the thyroid hormone becomes undetectable in the breeding water in the course of stage 3.
In stage 3, breeding is continuously performed in the 0.1 nM T4 breeding water. […]

Question: How did the metamorphosis stage (individual Exp. 5-2, 175 days old, total length 41.3 mm at start, c3 onward = treatment days 1,3,5,7,8,9,10,11,12,13,14,15,16,17,18, T4 (nM) 10,10,10,10,2,1,0.2,0.1,0.1,0.1,0.1,0.1, treatment day 14, T4 0.1 nM) turn out when N[C@@H](Cc1cc(I)c(Oc2cc(I)c(O)c(I)c2)c(I)c1)C(=O)O [T4, thyroxine] was run?
Answer: The metamorphosis stage was 3.

Question: What about the metamorphosis stage (individual Exp. 5-2, 175 days old, total length 41.3 mm at start, c3 onward = treatment days 1,3,5,7,8,9,10,11,12,13,14,15,16,17,18, T4 (nM) 10,10,10,10,2,1,0.2,0.1,0.1,0.1,0.1,0.1, treatment day 15, T4 0.1 nM) of the same compound?
Answer: The metamorphosis stage was 3.

Question: And the metamorphosis stage (individual Exp. 5-2, 175 days old, total length 41.3 mm at start, c3 onward = treatment days 1,3,5,7,8,9,10,11,12,13,14,15,16,17,18, T4 (nM) 10,10,10,10,2,1,0.2,0.1,0.1,0.1,0.1,0.1, treatment day 16)?
Answer: Its metamorphosis stage is 4.

Question: And the metamorphosis stage (individual Exp. 5-3, 175 days old, total length 41.7 mm at start, c3 onward = treatment days 1,3,5,7,8,9,10,11,12,13,14,15,16,17,18, T4 (nM) 10,10,10,10,2,1,0.2,0.1,0.1,0.1,0.1,0.1, treatment day 1, T4 10 nM)?
Answer: The metamorphosis stage was “L”.

Question: And the metamorphosis stage (individual Exp. 5-3, 175 days old, total length 41.7 mm at start, c3 onward = treatment days 1,3,5,7,8,9,10,11,12,13,14,15,16,17,18, T4 (nM) 10,10,10,10,2,1,0.2,0.1,0.1,0.1,0.1,0.1, treatment day 3, T4 10 nM)?
Answer: Its metamorphosis stage is “L”.

Question: What about the metamorphosis stage (individual Exp. 5-3, 175 days old, total length 41.7 mm at start, c3 onward = treatment days 1,3,5,7,8,9,10,11,12,13,14,15,16,17,18, T4 (nM) 10,10,10,10,2,1,0.2,0.1,0.1,0.1,0.1,0.1, treatment day 5, T4 10 nM) of the same compound?
Answer: Its metamorphosis stage is 1.

Question: And the metamorphosis stage (individual Exp. 5-3, 175 days old, total length 41.7 mm at start, c3 onward = treatment days 1,3,5,7,8,9,10,11,12,13,14,15,16,17,18, T4 (nM) 10,10,10,10,2,1,0.2,0.1,0.1,0.1,0.1,0.1, treatment day 7, T4 10 nM)?
Answer: The metamorphosis stage was 2.

Question: What about the metamorphosis stage (individual Exp. 5-3, 175 days old, total length 41.7 mm at start, c3 onward = treatment days 1,3,5,7,8,9,10,11,12,13,14,15,16,17,18, T4 (nM) 10,10,10,10,2,1,0.2,0.1,0.1,0.1,0.1,0.1, treatment day 8, T4 2 nM) of the same compound?
Answer: Its metamorphosis stage is 2.

Question: What about the metamorphosis stage (individual Exp. 5-3, 175 days old, total length 41.7 mm at start, c3 onward = treatment days 1,3,5,7,8,9,10,11,12,13,14,15,16,17,18, T4 (nM) 10,10,10,10,2,1,0.2,0.1,0.1,0.1,0.1,0.1, treatment day 9, T4 1 nM) of the same compound?
Answer: The metamorphosis stage was 2.

Question: And the metamorphosis stage (individual Exp. 5-3, 175 days old, total length 41.7 mm at start, c3 onward = treatment days 1,3,5,7,8,9,10,11,12,13,14,15,16,17,18, T4 (nM) 10,10,10,10,2,1,0.2,0.1,0.1,0.1,0.1,0.1, treatment day 10, T4 0.2 nM)?
Answer: Its metamorphosis stage is 2.

Question: What about the metamorphosis stage (individual Exp. 5-3, 175 days old, total length 41.7 mm at start, c3 onward = treatment days 1,3,5,7,8,9,10,11,12,13,14,15,16,17,18, T4 (nM) 10,10,10,10,2,1,0.2,0.1,0.1,0.1,0.1,0.1, treatment day 11, T4 0.1 nM) of the same compound?
Answer: The metamorphosis stage was 3.

Question: What about the metamorphosis stage (individual Exp. 5-3, 175 days old, total length 41.7 mm at start, c3 onward = treatment days 1,3,5,7,8,9,10,11,12,13,14,15,16,17,18, T4 (nM) 10,10,10,10,2,1,0.2,0.1,0.1,0.1,0.1,0.1, treatment day 12, T4 0.1 nM) of the same compound?
Answer: The metamorphosis stage was 3.

Question: And the metamorphosis stage (individual Exp. 5-3, 175 days old, total length 41.7 mm at start, c3 onward = treatment days 1,3,5,7,8,9,10,11,12,13,14,15,16,17,18, T4 (nM) 10,10,10,10,2,1,0.2,0.1,0.1,0.1,0.1,0.1, treatment day 13, T4 0.1 nM)?
Answer: The metamorphosis stage was 3.

Question: What about the metamorphosis stage (individual Exp. 5-3, 175 days old, total length 41.7 mm at start, c3 onward = treatment days 1,3,5,7,8,9,10,11,12,13,14,15,16,17,18, T4 (nM) 10,10,10,10,2,1,0.2,0.1,0.1,0.1,0.1,0.1, treatment day 14, T4 0.1 nM) of the same compound?
Answer: Its metamorphosis stage is 3.

Question: And the metamorphosis stage (individual Exp. 5-3, 175 days old, total length 41.7 mm at start, c3 onward = treatment days 1,3,5,7,8,9,10,11,12,13,14,15,16,17,18, T4 (nM) 10,10,10,10,2,1,0.2,0.1,0.1,0.1,0.1,0.1, treatment day 15, T4 0.1 nM)?
Answer: Its metamorphosis stage is 3.

Question: What about the metamorphosis stage (individual Exp. 5-3, 175 days old, total length 41.7 mm at start, c3 onward = treatment days 1,3,5,7,8,9,10,11,12,13,14,15,16,17,18, T4 (nM) 10,10,10,10,2,1,0.2,0.1,0.1,0.1,0.1,0.1, treatment day 16) of the same compound?
Answer: Its metamorphosis stage is 3.

Question: What about the metamorphosis stage (individual Exp. 5-3, 175 days old, total length 41.7 mm at start, c3 onward = treatment days 1,3,5,7,8,9,10,11,12,13,14,15,16,17,18, T4 (nM) 10,10,10,10,2,1,0.2,0.1,0.1,0.1,0.1,0.1, treatment day 17) of the same compound?
Answer: The metamorphosis stage was 3.

Question: What about the metamorphosis stage (individual Exp. 5-3, 175 days old, total length 41.7 mm at start, c3 onward = treatment days 1,3,5,7,8,9,10,11,12,13,14,15,16,17,18, T4 (nM) 10,10,10,10,2,1,0.2,0.1,0.1,0.1,0.1,0.1, treatment day 18) of the same compound?
Answer: Its metamorphosis stage is 4.

Question: What about the metamorphosis stage (individual Exp. 5-6, 174 days old, total length 34.5 mm at start, c3 onward = treatment days 1,3,5,7,8,9,10,11,12,13,14,15,16,17,18,20,22, T4 (nM) 10,10,10,10,10,10,10,2,1,1,0.2,0.1,0.1,0.1,0.1,0.1,0.1, treatment day 1, T4 10 nM) of the same compound?
Answer: Its metamorphosis stage is “L”.

Question: And the metamorphosis stage (individual Exp. 5-6, 174 days old, total length 34.5 mm at start, c3 onward = treatment days 1,3,5,7,8,9,10,11,12,13,14,15,16,17,18,20,22, T4 (nM) 10,10,10,10,10,10,10,2,1,1,0.2,0.1,0.1,0.1,0.1,0.1,0.1, treatment day 3, T4 10 nM)?
Answer: Its metamorphosis stage is “L”.

Question: And the metamorphosis stage (individual Exp. 5-6, 174 days old, total length 34.5 mm at start, c3 onward = treatment days 1,3,5,7,8,9,10,11,12,13,14,15,16,17,18,20,22, T4 (nM) 10,10,10,10,10,10,10,2,1,1,0.2,0.1,0.1,0.1,0.1,0.1,0.1, treatment day 5, T4 10 nM)?
Answer: The metamorphosis stage was “L”.

Question: And the metamorphosis stage (individual Exp. 5-6, 174 days old, total length 34.5 mm at start, c3 onward = treatment days 1,3,5,7,8,9,10,11,12,13,14,15,16,17,18,20,22, T4 (nM) 10,10,10,10,10,10,10,2,1,1,0.2,0.1,0.1,0.1,0.1,0.1,0.1, treatment day 7, T4 10 nM)?
Answer: Its metamorphosis stage is “L”.

Question: And the metamorphosis stage (individual Exp. 5-6, 174 days old, total length 34.5 mm at start, c3 onward = treatment days 1,3,5,7,8,9,10,11,12,13,14,15,16,17,18,20,22, T4 (nM) 10,10,10,10,10,10,10,2,1,1,0.2,0.1,0.1,0.1,0.1,0.1,0.1, treatment day 8, T4 10 nM)?
Answer: Its metamorphosis stage is 2.

Question: What about the metamorphosis stage (individual Exp. 5-6, 174 days old, total length 34.5 mm at start, c3 onward = treatment days 1,3,5,7,8,9,10,11,12,13,14,15,16,17,18,20,22, T4 (nM) 10,10,10,10,10,10,10,2,1,1,0.2,0.1,0.1,0.1,0.1,0.1,0.1, treatment day 9, T4 10 nM) of the same compound?
Answer: The metamorphosis stage was 2.

Question: What about the metamorphosis stage (individual Exp. 5-6, 174 days old, total length 34.5 mm at start, c3 onward = treatment days 1,3,5,7,8,9,10,11,12,13,14,15,16,17,18,20,22, T4 (nM) 10,10,10,10,10,10,10,2,1,1,0.2,0.1,0.1,0.1,0.1,0.1,0.1, treatment day 10, T4 10 nM) of the same compound?
Answer: The metamorphosis stage was 2.

Source: US20200093103A1, “BREEDING WATER FOR ANGUILLIFORMES AND METHOD FOR REARING ANGUILLIFORMES” (SHIN NIPPON BIOMEDICAL LABORATORIES, LTD., priority 2016, published 2020)
